This note sets out measurements from publication PMC12505902, “Inhibitors of trehalose-6-phosphate synthase activity in fungal pathogens compromise thermal tolerance pathways” (mBio, 2025).

The assay deals with C. glabrata. Briefly: Fungicidal spot assay on compound-free YPD plates. The format is cell-based. As for the experimental part: Fig 4 4456dh inhibits the growth of Candida and Cryptococcus species. […] 4456dh was administered at the concentrations indicated. Cultures were grown in YPD at the listed temperatures for 48 hours for Candida species and 72 hours for Cryptococcus species. Experimental temperatures reflect the temperatures at which the fungi experience heat stress. Left: relative growth of treated samples was calculated by averaging technical triplicates and normalizing the OD600 of each treated well to the average OD600 of the untreated WT controls, after the absorbance due to the compound was subtracted. The MIC80 values, calculated based on the OD600 values, are indicated in the white text on each heat map. […]
124 technical replicates. Growth, as determined by a reading of absorbance at 600 nm, was
125 normalized to untreated controls and was corrected for the absorbance of 4456dh in the YPD […]
129 overnight cultures was quantified by measuring the OD600 and corrected for the background
130 absorbance of the medium. Antifungal potency for 4456dh was assessed by minimum inhibitory […]
137 replicates. Growth, as determined by a reading of absorbance at 600 nm, was normalized to
138 untreated controls and was corrected for the absorbance of 4456dh in the YPD medium. […]
139 minimum inhibitory concentration causing 80% growth reduction, or MIC80, was determined based […]

With `Cn1cc(-c2csc(NC(=O)Cc3ccccn3)n2)cn1` [Compound 4456dh], where the note is “30°C exposure”, the fungicidal activity result is listed as “no MIC or fungicidal activity was detected”. For the same molecule, the “concentration from which fungicidal activity starts” value (42°C exposure) is “approximately 7.8 µM”.
